From PubChem BioAssay AID264 (DTP/NCI, 2004) come the findings set out here.

Several values for one entry are separate records, joined by “and”; a condition that tells them apart may be missing. Identical values can stand only once. Results filed as inconclusive are left out.

The experiment concerns nude mice, LX-1 lung xenograft intrarenal, tumor weight T/C. The experiment can be described thus: NCI In Vivo Anticancer Drug Screen. Data for tumor model Human Lung LX-1 Xenograft (intrarenal inoculation) in NU/NU Swiss (nude) mice. The conditions noted are these: endpoint: mean tumor weight change, higher = larger tumour. The gist of the method:
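Tumor-bearing mice receive test compound or vehicle; tumor size is then measured in each group. The treated value is divided by the vehicle value to give T/C.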
(In general: In xenograft studies the graft and the host belong to different species.)

Setting [1] is: dose: 600.0 mg/kg/injection, schedule: Q04DX003 (sc), vehicle: saline.
The mark [2] stands for this setting: dose: 100.0 mg/kg/injection, schedule: Q04DX003 (sc), vehicle: saline with Tween-80.
Where [3] appears, read: dose: 200.0 mg/kg/injection, schedule: Q04DX003 (sc), vehicle: saline with Tween-80.
The mark [4] stands for this setting: dose: 1.0 mg/kg/injection, schedule: Q04DX003 (sc), vehicle: saline + alcohol.
[5] abbreviates: dose: 2.0 mg/kg/injection, schedule: Q04DX003 (sc), vehicle: saline + alcohol.

Consider `c1ccc2c(c1)nnn1c3cnccc3nc21`, for which the T/C (dose: 3.12 mg/kg/injection, schedule: Q01DX010 (sc), vehicle: saline with Tween-80) is 59 % of control; the T/C (dose: 6.25 mg/kg/injection, schedule: Q01DX010 (sc), vehicle: saline with Tween-80) is 187 % of control; the T/C (dose: 12.5 mg/kg/injection, schedule: Q01DX010 (sc), vehicle: saline with Tween-80) is 72 % of control; the T/C (dose: 25.0 mg/kg/injection, schedule: Q01DX010 (sc), vehicle: saline with Tween-80) is 107 % of control; the T/C (dose: 50.0 mg/kg/injection, schedule: Q01DX010 (sc), vehicle: saline with Tween-80) was 160 % of control; the T/C (dose: 100.0 mg/kg/injection, schedule: Q01DX010 (sc), vehicle: saline with Tween-80) is 210 % of control.
Regarding `CCn1cnc2c(=S)nc[nH]c21`, the T/C runs as follows: (dose: 150.0 mg/kg/injection, schedule: Q04DX003 (sc), vehicle: saline) 159 % of control; under setting [1], 224 % of control.
Consider `CCCCCC[C@@H](O)C/C=C\CCCCCCCC(=O)OCCO`, for which the T/C runs as follows: (dose: 300.0 mg/kg/injection, schedule: Q04DX003 (sc), vehicle: saline) 69 % of control; under setting [1], 90 % of control; (dose: 1200.0 mg/kg/injection, schedule: Q04DX003 (sc), vehicle: saline) 28 % of control; (dose: 2400.0 mg/kg/injection, schedule: Q04DX003 (sc), vehicle: saline) 50 % of control.
Regarding `CC(=O)C1(O)Cc2c(O)c3c(c(O)c2C(OC2CC(N)C(O)C(C)O2)C1)C(=O)c1ccccc1C3=O` (stereo not drawn), the T/C (dose: 0.5 mg/kg/injection, schedule: Q04DX003 (sc), vehicle: water) is 120 % of control.
With `CN(C)CCN1C(=O)c2cccc3cc(N)cc(c23)C1=O`, the T/C is, setting by setting: (dose: 16.0 mg/kg/injection, schedule: Q04DX003 (sc), vehicle: saline with Tween-80) 157 % of control; (dose: 64.0 mg/kg/injection, schedule: Q04DX003 (sc), vehicle: saline with Tween-80) 113 % of control.
For `O=C(O[Si](Cc1ccccc1)(Cc1ccccc1)Cc1ccccc1)N(CCCl)CCCl`, the T/C is, setting by setting: under setting [2], 53 % of control; under setting [3], 120 % of control.
`CCC(C)Nc1ccc(N)cc1` (stereo not drawn): the T/C (dose: 9.0 mg/kg/injection, schedule: Q04DX003 (sc), vehicle: Klucel (hydroxypropylcellulose) (HPC)) is 80 % of control and the T/C (dose: 18.0 mg/kg/injection, schedule: Q04DX003 (sc), vehicle: Klucel (hydroxypropylcellulose) (HPC)) is 104 % of control.
For `CCN(CC)CC[n+]1ccc2c(C)c3[nH]c4ccc(O)cc4c3c(C)c2c1`, the T/C was 172 % of control (dose: 25.0 mg/kg/injection, schedule: Q04DX003 (sc), vehicle: suspension in saline) and 111 % of control (dose: 50.0 mg/kg/injection, schedule: Q04DX003 (sc), vehicle: suspension in saline).
Consider `CC1(C)OCC(CO)(Nc2nc(N3CC3)nc(N3CC3)n2)CO1`, for which, under “dose: 1.25 mg/kg/injection, schedule: Q01DX010 (sc), vehicle: saline”, the T/C was 74 % of control.
In the case of `O=c1c(O)c(-c2cc(O)c(O)c(O)c2)oc2cc(O)cc(O)c12`, the T/C was 93 % of control (dose: 6.0 mg/kg/injection, schedule: Q04DX003 (sc), vehicle: saline with Tween-80); 99 % of control (dose: 12.0 mg/kg/injection, schedule: Q04DX003 (sc), vehicle: saline with Tween-80); 92 % of control (dose: 24.0 mg/kg/injection, schedule: Q04DX003 (sc), vehicle: saline with Tween-80); 96 % of control (dose: 48.0 mg/kg/injection, schedule: Q04DX003 (sc), vehicle: saline with Tween-80); 100 % of control (dose: 50.0 mg/kg/injection, schedule: Q04DX003 (sc), vehicle: saline with Tween-80); 83 % of control under setting [2]. Besides, the T/C is, setting by setting: under setting [3], 69 % of control; (dose: 400.0 mg/kg/injection, schedule: Q04DX003 (sc), vehicle: saline with Tween-80) 94 % of control.
In the case of `CCC1(O)CC2CN(CCc3c([nH]c4ccccc34)C(C(=O)OC)(c3cc4c(cc3OC)N(C)C3C(O)(C(=O)NCCSSCCNC(=O)C5(O)C(O)C6(CC)C=CCN7CCC8(c9cc(C%10(C(=O)OC)CC%11CN(CCc%12c%10[nH]c%10ccccc%12%10)CC(O)(CC)C%11)c(OC)cc9N(C)C58)C76)C(O)C5(CC)C=CCN6CCC43C65)C2)C1` (stereo not drawn), the T/C by setting is: (dose: 0.75 mg/kg/injection, schedule: Q04DX003 (sc), vehicle: saline) 46 % of control; (dose: 1.5 mg/kg/injection, schedule: Q04DX003 (sc), vehicle: saline) 23 % of control and 46 % of control; (dose: 1.5 mg/kg/injection, schedule: Q04DX003 (sc), vehicle: suspension in saline) 105 % of control; (dose: 6.0 mg/kg/injection, schedule: Q04DX003 (sc), vehicle: suspension in saline) 81 % of control; (dose: 12.0 mg/kg/injection, schedule: Q04DX003 (sc), vehicle: saline) 88 % of control; (dose: 12.0 mg/kg/injection, schedule: Q04DX003 (sc), vehicle: suspension in saline) 65 % of control.
For `O=c1[nH]c(=O)n(C2OC(CO)C(O)C2O)cc1F` (stereo not drawn), the T/C is, setting by setting: (dose: 9.37 mg/kg/injection, schedule: Q04DX003 (sc), vehicle: saline) 77 % of control; (dose: 18.75 mg/kg/injection, schedule: Q04DX003 (sc), vehicle: saline) 26 % of control.
For the compound `Nc1ccc(C(OC(=O)c2cc3ccccc3c(Cc3c(O)c(C(=O)OC(c4ccc(N)cc4)(c4ccc(N)cc4)c4ccc(N)cc4)cc4ccccc34)c2O)(c2ccc(N)cc2)c2ccc(N)cc2)cc1`, the T/C (dose: 36.0 mg/kg/injection, schedule: Q04DX003 (sc), vehicle: saline with Tween-80) is 87 % of control; the T/C (dose: 72.0 mg/kg/injection, schedule: Q04DX003 (sc), vehicle: saline with Tween-80) is 116 % of control; the T/C (dose: 144.0 mg/kg/injection, schedule: Q04DX003 (sc), vehicle: saline with Tween-80) was 67 % of control; the T/C (dose: 288.0 mg/kg/injection, schedule: Q04DX003 (sc), vehicle: saline with Tween-80) was 58 % of control.
For `CO[C@H]1Nc2c(ccc(C)c2O)C(=O)N2C=C(/C=C/C(N)=O)C[C@@H]12`, the T/C is, setting by setting: (dose: 0.25 mg/kg/injection, schedule: Q04DX003 (sc), vehicle: saline + alcohol) 48 % of control; (dose: 0.5 mg/kg/injection, schedule: Q04DX003 (sc), vehicle: saline + alcohol) 75 % of control; under setting [4], 115 % of control; under setting [5], 39 % of control.
Consider `Clc1ccc(C(c2ccccc2Cl)C(Cl)Cl)cc1` (stereo not drawn), for which the T/C runs as follows: (dose: 400.0 mg/kg/injection, schedule: Q01DX010 (sc), vehicle: saline with Tween-80) 80 % of control; (dose: 800.0 mg/kg/injection, schedule: Q01DX010 (sc), vehicle: saline with Tween-80) 40 % of control; (dose: 800.0 mg/kg/injection, schedule: Q01DX010 (sc), vehicle: saline) 69 % of control; (dose: 1600.0 mg/kg/injection, schedule: Q01DX010 (sc), vehicle: saline with Tween-80) 56 % of control; (dose: 1600.0 mg/kg/injection, schedule: Q01DX010 (sc), vehicle: saline) 55 % of control; (dose: 3200.0 mg/kg/injection, schedule: Q01DX010 (sc), vehicle: saline with Tween-80) 24 % of control. The T/C is, setting by setting: (dose: 3200.0 mg/kg/injection, schedule: Q01DX010 (sc), vehicle: saline) 80 % of control; (dose: 6400.0 mg/kg/injection, schedule: Q01DX010 (sc), vehicle: saline) 73 % of control.
On to `Cc1cc(SCC(=O)c2ccc(Br)cc2)cc(C)[o+]1`, for which the T/C is 111 % of control (dose: 50.0 mg/kg/injection, schedule: Q01DX010 (sc), vehicle: saline) and 116 % of control (dose: 200.0 mg/kg/injection, schedule: Q01DX010 (sc), vehicle: saline).
`COC1/C=C/C=C(/C)Cc2cc(O)c(Cl)c(c2)N(C)C(=O)CC(OC(=O)C(C)C)C2(C)OC2C(C)C2CC1(O)NC(=O)O2` (stereo not drawn): the T/C under setting [4] was 81 % of control; the T/C under setting [5] is 67 % of control; the T/C (dose: 4.0 mg/kg/injection, schedule: Q04DX003 (sc), vehicle: saline + alcohol) is 58 % of control.
For the compound `COc1cc2c(c(OC)c1OC)-c1c(cc3c(c1OC)OCO3)CC(C)C(C)(O)C2OC(=O)c1ccccc1` (stereo not drawn), the T/C was 65 % of control (dose: 300.0 mg/kg/injection, schedule: Q04DX003 (sc), vehicle: saline + alcohol); 107 % of control (dose: 600.0 mg/kg/injection, schedule: Q04DX003 (sc), vehicle: saline + alcohol); 108 % of control (dose: 1200.0 mg/kg/injection, schedule: Q04DX003 (sc), vehicle: saline + alcohol); 77 % of control (dose: 2400.0 mg/kg/injection, schedule: Q04DX003 (sc), vehicle: saline + alcohol).
